Assays:
Format in all cases: cell-based
human TLR8 = target: T1, human TLR8 (Homo sapiens, UniProt Q9NR97); assay: TLR8 inhibition reporter assay (HEK-Blue cells, SEAP reporter, R848 stimulation); settings: HEK-Blue cells overexpressing human TLR8, SEAP reporter, R848 15.9 μM
T1 construct: host or cells: HEK-Blue cells (HEK293-derived reporter line)
T1 sequence (Q9NR97 27-1041): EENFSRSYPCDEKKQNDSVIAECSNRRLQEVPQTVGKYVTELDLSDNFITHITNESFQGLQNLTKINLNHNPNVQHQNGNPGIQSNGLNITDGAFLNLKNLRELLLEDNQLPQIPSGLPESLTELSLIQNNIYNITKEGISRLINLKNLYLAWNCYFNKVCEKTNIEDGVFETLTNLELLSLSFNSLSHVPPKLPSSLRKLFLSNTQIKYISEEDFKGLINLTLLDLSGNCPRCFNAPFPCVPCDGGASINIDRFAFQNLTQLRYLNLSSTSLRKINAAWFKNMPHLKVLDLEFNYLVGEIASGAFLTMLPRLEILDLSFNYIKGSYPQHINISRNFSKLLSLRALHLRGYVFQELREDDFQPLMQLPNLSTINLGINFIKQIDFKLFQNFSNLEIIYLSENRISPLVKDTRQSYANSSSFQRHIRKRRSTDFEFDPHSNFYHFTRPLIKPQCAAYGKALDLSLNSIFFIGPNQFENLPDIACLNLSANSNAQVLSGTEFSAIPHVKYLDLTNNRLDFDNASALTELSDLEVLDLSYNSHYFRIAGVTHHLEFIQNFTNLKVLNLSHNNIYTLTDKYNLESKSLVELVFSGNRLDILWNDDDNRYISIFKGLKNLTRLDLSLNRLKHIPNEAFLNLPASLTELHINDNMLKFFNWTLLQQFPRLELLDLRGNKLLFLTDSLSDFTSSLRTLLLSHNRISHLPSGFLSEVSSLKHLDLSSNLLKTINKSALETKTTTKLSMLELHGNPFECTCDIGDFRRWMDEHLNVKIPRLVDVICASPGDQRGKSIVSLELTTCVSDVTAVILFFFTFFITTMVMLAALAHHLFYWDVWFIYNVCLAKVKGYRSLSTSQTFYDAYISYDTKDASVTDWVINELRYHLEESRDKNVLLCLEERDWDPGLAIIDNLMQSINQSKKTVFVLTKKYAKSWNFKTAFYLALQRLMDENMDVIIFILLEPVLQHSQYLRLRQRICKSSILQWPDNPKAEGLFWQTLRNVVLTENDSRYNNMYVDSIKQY
Method in brief: (§1)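 Read-out is SEAP activity in HEK-Blue detection medium after 22 h at 37 °C, converted to percent inhibition against agonist-plus-DMSO and reference-inhibitor controls. Cells saw compound (0.05 nM–50 μM, 30 min, room temperature) before gardiquimod 7.5 μM, R848 15.9 μM or ODN2006 5 nM for TLR7, TLR8 and TLR9, respectively.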

human TLR7 = target: T2, human TLR7 (Homo sapiens, UniProt Q9NYK1); assay: TLR7 inhibition reporter assay (HEK-Blue cells, SEAP reporter, gardiquimod stimulation); settings: HEK-Blue cells overexpressing human TLR7, SEAP reporter, gardiquimod 7.5 μM
T2 construct: host or cells: HEK-Blue cells (HEK293-derived reporter line)
T2 sequence (Q9NYK1 27-1049): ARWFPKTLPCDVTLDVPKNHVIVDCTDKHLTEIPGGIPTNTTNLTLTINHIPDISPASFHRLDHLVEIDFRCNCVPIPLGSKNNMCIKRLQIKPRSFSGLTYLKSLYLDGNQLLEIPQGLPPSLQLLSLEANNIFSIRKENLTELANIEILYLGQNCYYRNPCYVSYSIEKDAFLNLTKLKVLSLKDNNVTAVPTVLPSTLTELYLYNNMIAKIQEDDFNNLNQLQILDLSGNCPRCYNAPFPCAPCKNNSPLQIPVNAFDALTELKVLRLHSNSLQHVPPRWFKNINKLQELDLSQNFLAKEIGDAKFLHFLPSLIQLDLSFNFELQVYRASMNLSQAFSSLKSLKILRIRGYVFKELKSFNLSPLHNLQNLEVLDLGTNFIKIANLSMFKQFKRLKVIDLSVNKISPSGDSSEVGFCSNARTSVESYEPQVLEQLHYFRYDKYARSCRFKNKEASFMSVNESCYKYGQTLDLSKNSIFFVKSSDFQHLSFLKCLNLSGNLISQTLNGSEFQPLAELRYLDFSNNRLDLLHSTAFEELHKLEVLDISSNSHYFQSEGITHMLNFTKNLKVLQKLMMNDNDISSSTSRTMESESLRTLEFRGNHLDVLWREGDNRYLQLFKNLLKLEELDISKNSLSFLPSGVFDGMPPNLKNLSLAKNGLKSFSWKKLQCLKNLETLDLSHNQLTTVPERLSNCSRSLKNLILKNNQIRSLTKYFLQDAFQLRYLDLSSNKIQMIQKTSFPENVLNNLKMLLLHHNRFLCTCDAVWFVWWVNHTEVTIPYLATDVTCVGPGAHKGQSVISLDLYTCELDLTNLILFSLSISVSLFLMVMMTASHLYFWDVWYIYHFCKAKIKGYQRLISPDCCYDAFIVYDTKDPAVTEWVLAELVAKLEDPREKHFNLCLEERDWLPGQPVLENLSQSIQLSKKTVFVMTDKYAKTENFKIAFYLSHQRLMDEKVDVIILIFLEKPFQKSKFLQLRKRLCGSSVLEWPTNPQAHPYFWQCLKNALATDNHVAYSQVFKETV
Method in brief: as §1

human TLR9 = target: T3, human TLR9 (Homo sapiens, UniProt Q9NR96); assay: TLR9 inhibition reporter assay (HEK-Blue cells, SEAP reporter, ODN2006 stimulation); settings: HEK-Blue cells overexpressing human TLR9, SEAP reporter, ODN2006 5 nM
T3 construct: host or cells: HEK-Blue cells (HEK293-derived reporter line)
T3 sequence (Q9NR96 26-1032): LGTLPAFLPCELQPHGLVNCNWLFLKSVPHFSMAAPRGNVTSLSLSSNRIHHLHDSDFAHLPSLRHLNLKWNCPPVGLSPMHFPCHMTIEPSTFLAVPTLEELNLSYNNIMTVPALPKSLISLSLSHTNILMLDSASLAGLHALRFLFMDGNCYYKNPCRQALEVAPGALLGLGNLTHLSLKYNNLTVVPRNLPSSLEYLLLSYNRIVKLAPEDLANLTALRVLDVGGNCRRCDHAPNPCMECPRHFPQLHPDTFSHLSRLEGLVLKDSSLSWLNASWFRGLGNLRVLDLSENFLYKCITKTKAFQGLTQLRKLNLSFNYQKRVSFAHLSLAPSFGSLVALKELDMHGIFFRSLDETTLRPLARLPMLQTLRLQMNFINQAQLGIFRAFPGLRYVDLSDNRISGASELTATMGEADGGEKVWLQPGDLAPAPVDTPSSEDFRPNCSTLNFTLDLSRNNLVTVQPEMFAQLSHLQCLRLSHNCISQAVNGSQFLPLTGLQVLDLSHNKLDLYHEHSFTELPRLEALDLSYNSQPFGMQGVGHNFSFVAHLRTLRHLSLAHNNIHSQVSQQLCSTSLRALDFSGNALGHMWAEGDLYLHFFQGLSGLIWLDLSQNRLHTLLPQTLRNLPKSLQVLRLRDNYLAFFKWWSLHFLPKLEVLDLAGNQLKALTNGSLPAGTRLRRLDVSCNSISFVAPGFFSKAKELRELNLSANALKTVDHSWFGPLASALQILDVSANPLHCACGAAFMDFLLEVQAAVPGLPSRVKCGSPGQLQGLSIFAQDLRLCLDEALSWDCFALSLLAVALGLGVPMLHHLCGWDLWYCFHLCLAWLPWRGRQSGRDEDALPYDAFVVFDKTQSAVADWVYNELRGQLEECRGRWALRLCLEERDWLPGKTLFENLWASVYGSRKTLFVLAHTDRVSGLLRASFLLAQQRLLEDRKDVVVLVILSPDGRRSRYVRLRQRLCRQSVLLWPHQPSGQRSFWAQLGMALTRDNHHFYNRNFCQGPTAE
Method in brief: as §1

Compound: CC(C)c1c(-c2cnc3nccn3c2)[nH]c2ccc(C3CCN(CC(=O)N(C)C)CC3)cc12 [Example 363, 2-(4-(2-(imidazo[1,2-a]pyrimidin-6-yl)-3-isopropyl-1H-indol-5-yl)piperidin-1-yl)-N,N-dimethylacetamide]
- IC50 (human TLR8): 100 to 1000 nM
- IC50 (human TLR7): 100 to 1000 nM
- IC50 (human TLR9): 100 to 1000 nM

Compound: CC(C)c1c(-c2ccn3ccnc3c2)[nH]c2ccc(C3CCNCC3)cc12 [Example 203, 7-(3-isopropyl-5-(piperidin-4-yl)-1H-indol-2-yl)imidazo[1,2-a]pyridine]
- IC50 (human TLR8): < 100 nM
- IC50 (human TLR7): < 100 nM
- IC50 (human TLR9): 100 to 1000 nM

Compound: CCN(C)CCC(=O)N1CCC(c2ccc3[nH]c(-c4cc(C)c5nnnn5c4)c(C(C)C)c3c2)CC1 [Example 625, 3-(ethyl(methyl)amino)-1-(4-(3-isopropyl-2-(8-methyltetrazolo[1,5-a]pyridin-6-yl)-1H-indol-5-yl)piperidin-1-yl)propan-1-one]
- IC50 (human TLR8): < 100 nM
- IC50 (human TLR7): < 100 nM
- IC50 (human TLR9): 1000 to 50000 nM

Compound: CCc1c(-c2ccnc3[nH]ncc23)[nH]c2ccc(C3CCN(Cc4[nH]cnc4C)CC3)cc12 [Example 916, 4-(3-ethyl-5-(1-((4-methyl-1H-imidazol-5-yl)methyl)piperidin-4-yl)-1H-indol-2-yl)-1H-pyrazolo[3,4-b]pyridine]
- IC50 (human TLR8): 100 to 1000 nM
- IC50 (human TLR7): 100 to 1000 nM
- IC50 (human TLR9): 100 to 1000 nM

Compound: Cc1cc(-c2c[nH]c3nccc(-c4[nH]c5ccc(C6CCNCC6)cc5c4C)c23)n(C)n1 [Example 225, 3-(1,3-dimethyl-1H-pyrazol-5-yl)-4-(3-methyl-5-(piperidin-4-yl)-1H-indol-2-yl)-1H-pyrrolo[2,3-b]pyridine]
- IC50 (human TLR8): 100 to 1000 nM
- IC50 (human TLR7): 100 to 1000 nM
- IC50 (human TLR9): 100 to 1000 nM

Compound: CNCC(=O)N1CCC(c2ccc3[nH]c(-c4cc(C)c5ncccc5c4)c(C(C)C)c3c2)CC1 [Example 560, 1-(4-(3-isopropyl-2-(8-methylquinolin-6-yl)-1H-indol-5-yl)piperidin-1-yl)-2-(methylamino)ethan-1-one]
- IC50 (human TLR8): < 100 nM
- IC50 (human TLR7): < 100 nM
- IC50 (human TLR9): 1000 to 50000 nM

Compound: CC(C)c1c(-c2ccnc3[nH]ncc23)[nH]c2ccc(C3CCN(Cc4cnccn4)CC3)cc12 [Example 903, 4-(3-isopropyl-5-(1-(pyrazin-2-ylmethyl)piperidin-4-yl)-1H-indol-2-yl)-1H-pyrazolo[3,4-b]pyridine]
- IC50 (human TLR8): < 100 nM
- IC50 (human TLR7): < 100 nM
- IC50 (human TLR9): 1000 to 50000 nM

Compound: Cc1ccc(-c2[nH]c3ccc(C4CCN(CC(C)(C)O)CC4)cc3c2C(C)C)c2ncnn12 [Example 769, 1-(4-(3-isopropyl-2-(5-methyl-[1,2,4]triazolo[1,5-a]pyridin-8-yl)-1H-indol-5-yl)piperidin-1-yl)-2-methylpropan-2-ol]
- IC50 (human TLR8): < 100 nM
- IC50 (human TLR7): < 100 nM
- IC50 (human TLR9): 1000 to 50000 nM

Compound: CC(C)c1c(-c2cc(F)c3nccn3c2)[nH]c2ccc(C3CCN(CC(=O)N(C)C)CC3)cc12 [Example 408, 2-(4-(2-(8-fluoroimidazo[1,2-5a]pyridin-6-yl)-3-isopropyl-1H-indol-5-yl)piperidin-1-yl)-N,N-dimethylacetamide]
- IC50 (human TLR8): 100 to 1000 nM
- IC50 (human TLR7): < 100 nM
- IC50 (human TLR9): 1000 to 50000 nM

Compound: CCc1c(-c2cnc3cn[nH]c3c2)[nH]c2ccc(C3CCN(C4CCN(C(C)C)CC4)CC3)cc12 [Example 836, 6-(3-ethyl-5-(1′-isopropyl-[1,4′-bipiperidin]-4-yl)-1H-indol-2-yl)-1H-pyrazolo[4,3-b]pyridine]
- IC50 (human TLR8): < 100 nM
- IC50 (human TLR7): < 100 nM
- IC50 (human TLR9): < 100 nM

Compound: Cc1cc2nnnn2cc1-c1[nH]c2ccc(C3CCN(C4CCS(=O)(=O)CC4)CC3)cc2c1C(C)C [Example 791, 4-(4-(3-isopropyl-2-(7-methyltetrazolo[1,5-a]pyridin-6-yl)-1H-indol-5-yl)piperidin-1-yl)tetrahydro-2H-thiopyran 1,1-dioxide]
- IC50 (human TLR8): < 100 nM
- IC50 (human TLR7): < 100 nM
- IC50 (human TLR9): 1000 to 50000 nM

Compound: CC(C)c1c(-c2cc3cn[nH]c3cn2)[nH]c2ccc(C3CCNCC3)cc12 [Example 179, 5-(3-isopropyl-5-(piperidin-4-yl)-1H-indol-2-yl)-1H-pyrazolo[3,4-c]pyridine]
- IC50 (human TLR8): < 100 nM
- IC50 (human TLR7): < 100 nM
- IC50 (human TLR9): 1000 to 50000 nM

Source: US11739098B2 (BRISTOL-MYERS SQUIBB COMPANY, priority 2017, dated 2023)
